According to article PMC9516332 (Frontiers in Oncology, 2022):
Where two headings read alike, the source gives them in different places.

Legend:
[1] = molecular target: T1, panel of 255 wild-type kinases (Homo sapiens, UniProt Q9BZL6); test: Kinase panel profiling at 1 µmol/L (MSA or IMAP), percentage inhibition; type: biochemical; settings: kinase PKD2; 1 µmol/L single concentration; read-out: %-inhibition at 1 µmol/L, PKD2
T1 sequence (Q9BZL6 1-878): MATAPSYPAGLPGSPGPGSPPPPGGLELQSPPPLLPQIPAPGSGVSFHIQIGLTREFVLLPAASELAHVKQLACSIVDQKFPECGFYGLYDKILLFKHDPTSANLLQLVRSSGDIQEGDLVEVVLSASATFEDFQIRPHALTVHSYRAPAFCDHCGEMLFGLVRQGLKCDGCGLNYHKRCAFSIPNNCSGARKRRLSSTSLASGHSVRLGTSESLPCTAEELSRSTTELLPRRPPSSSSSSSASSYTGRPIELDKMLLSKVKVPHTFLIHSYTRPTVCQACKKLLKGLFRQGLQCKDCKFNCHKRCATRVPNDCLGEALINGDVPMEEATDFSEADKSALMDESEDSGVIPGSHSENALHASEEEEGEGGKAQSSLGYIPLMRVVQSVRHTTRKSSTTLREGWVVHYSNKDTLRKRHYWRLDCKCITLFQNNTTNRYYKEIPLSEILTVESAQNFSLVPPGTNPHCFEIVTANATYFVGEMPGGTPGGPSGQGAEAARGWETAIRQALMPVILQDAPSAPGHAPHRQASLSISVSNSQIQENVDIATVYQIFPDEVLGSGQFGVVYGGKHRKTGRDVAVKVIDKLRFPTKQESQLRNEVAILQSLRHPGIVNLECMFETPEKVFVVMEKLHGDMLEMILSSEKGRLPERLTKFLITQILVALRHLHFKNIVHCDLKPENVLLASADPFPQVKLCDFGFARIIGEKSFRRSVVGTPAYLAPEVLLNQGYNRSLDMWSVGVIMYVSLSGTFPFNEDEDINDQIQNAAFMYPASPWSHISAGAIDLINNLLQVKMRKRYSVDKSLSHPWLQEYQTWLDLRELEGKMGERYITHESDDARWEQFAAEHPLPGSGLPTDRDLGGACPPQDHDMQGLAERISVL

[2] = tested on: AP-1060 (ETV6-NTRK3); test: Cell viability assay; settings: read-out: IC50 in cell proliferation assay
[3] = tested on: 134 cancer cell lines; test: Cell viability assay (ATPlite, 72 hours), IC50 on cancer cell line panel

`CCc1nc(C(N)=O)c(Nc2ccc(N3CCC(N4CCN(C)CC4)CC3)c(OC)c2)nc1NC1CCOCC1` [gilteritinib] was tested, and the inhibition at 1 µM [1] was 56%, the IC50 [2] was 417 nM and the IC50 ([3]; HEC-6, read-out: IC50 in cell proliferation assay, HEC-6 cell line (EGFR p.A289V)) was 1430 nM. For the same molecule, the IC50 ([3]; Homo sapiens, 769-P, read-out: IC50 in cell proliferation assay, cell line 769-P) was 1150 nM, the IC50 ([3]; Homo sapiens, 786-0, read-out: IC50 in cell proliferation assay, cell line 786-O) was 947 nM and the IC50 ([3]; Homo sapiens, A 172, read-out: IC50 in cell proliferation assay, cell line A-172) was 1630 nM. It also gave an IC50 ([3]; Homo sapiens, A204, read-out: IC50 in cell proliferation assay, cell line A-204) of 392 nM, an IC50 ([3]; Homo sapiens, A498, read-out: IC50 in cell proliferation assay, cell line A-498) of 552 nM and an IC50 ([3]; Homo sapiens, A549, read-out: IC50 in cell proliferation assay, cell line A-549) of 630 nM. It also gave an IC50 ([3]; Homo sapiens, A704, read-out: IC50 in cell proliferation assay, cell line A-704) of 962 nM, an IC50 ([3]; Homo sapiens, A-375, read-out: IC50 in cell proliferation assay, cell line A-375 (BRAF p.V600E)) of 400 nM and an IC50 ([3]; Homo sapiens, A-427, read-out: IC50 in cell proliferation assay, cell line A-427) of 248 nM. It also gave an IC50 ([3]; Homo sapiens, ACHN, read-out: IC50 in cell proliferation assay, cell line ACHN) of 294 nM, an IC50 ([3]; Homo sapiens, AN3-CA, read-out: IC50 in cell proliferation assay, cell line AN3-CA (FGFR2 p.N549K)) of 1220 nM and an IC50 ([3]; Homo sapiens, ASPC1, read-out: IC50 in cell proliferation assay, cell line AsPC-1) of 545 nM. The IC50 ([3]; Homo sapiens, AU565, read-out: IC50 in cell proliferation assay, cell line AU565 (ERBB2 amplification)) was 1310 nM, the IC50 ([3]; Homo sapiens, BT-20, read-out: IC50 in cell proliferation assay, cell line BT-20) was 4220 nM and the IC50 ([3]; Homo sapiens, BT-474, read-out: IC50 in cell proliferation assay, cell line BT-474 (ERBB2 amplification)) was 13900 nM. It also gave an IC50 ([3]; Homo sapiens, BT-549, read-out: IC50 in cell proliferation assay, cell line BT-549) of 469 nM, an IC50 ([3]; Homo sapiens, BXPC-3, read-out: IC50 in cell proliferation assay, cell line BxPC-3) of 409 nM and an IC50 ([3]; Homo sapiens, C-33-A, read-out: IC50 in cell proliferation assay, cell line C-33 A) of 344 nM. The IC50 ([3]; Homo sapiens, CAL-27, read-out: IC50 in cell proliferation assay, cell line CAL-27) was 366 nM, the IC50 ([3]; Homo sapiens, CCF-STTG1, read-out: IC50 in cell proliferation assay, cell line CCF-STTG1) was 4060 nM and the IC50 ([3]; Homo sapiens, CCRF-CEM, read-out: IC50 in cell proliferation assay, cell line CCRF-CEM) was 1690 nM. The IC50 ([3]; Homo sapiens, COLO 205, read-out: IC50 in cell proliferation assay, cell line COLO 205 (BRAF p.V600E)) was 1060 nM, the IC50 ([3]; Homo sapiens, COLO-829, read-out: IC50 in cell proliferation assay, cell line COLO 829 (BRAF p.V600E)) was 1220 nM and the IC50 ([3]; Homo sapiens, DLD-1, read-out: IC50 in cell proliferation assay, cell line DLD-1) was 746 nM. The IC50 ([3]; Homo sapiens, DU-4475, read-out: IC50 in cell proliferation assay, cell line DU4475 (BRAF p.V600E)) was 1440 nM, the IC50 ([3]; Homo sapiens, Daoy, read-out: IC50 in cell proliferation assay, cell line Daoy) was 3210 nM and the IC50 ([3]; Homo sapiens, DoTc2-4510, read-out: IC50 in cell proliferation assay, cell line DoTc2 4510) was 318 nM. It also gave an IC50 ([3]; Homo sapiens, EOL1, read-out: IC50 in cell proliferation assay, cell line EoL-1 (FIP1L1-PDGFRA)) of 33 nM, an IC50 ([3]; Homo sapiens, FaDu, read-out: IC50 in cell proliferation assay, cell line FaDu) of 459 nM and an IC50 ([3]; Homo sapiens, G-361, read-out: IC50 in cell proliferation assay, cell line G-361 (BRAF p.V600E)) of 328 nM. It also gave an IC50 ([3]; Homo sapiens, HCC827, read-out: IC50 in cell proliferation assay, cell line HCC827 (EGFR exon19del)) of 223 nM, an IC50 ([3]; Homo sapiens, HCC4006, read-out: IC50 in cell proliferation assay, cell line HCC4006 (EGFR exon19del)) of 540 nM and an IC50 ([3]; Homo sapiens, HCT-15, read-out: IC50 in cell proliferation assay, cell line HCT 15) of 829 nM. The IC50 ([3]; Homo sapiens, HCT-116, read-out: IC50 in cell proliferation assay, cell line HCT 116) was 418 nM, the IC50 ([3]; Homo sapiens, HEC-1, read-out: IC50 in cell proliferation assay, HEC-1 cell line) was 462 nM and the IC50 ([3]; Homo sapiens, HEC-1B, read-out: IC50 in cell proliferation assay, HEC-1-B cell line (EGFR p.A864V)) was 270 nM. The IC50 ([3]; Homo sapiens, HL-60, read-out: IC50 in cell proliferation assay, HL-60 cell line) was 438 nM, the IC50 ([3]; Homo sapiens, HT, read-out: IC50 in cell proliferation assay, HT cell line) was 3410 nM and the IC50 ([3]; Homo sapiens, HT-1080, read-out: IC50 in cell proliferation assay, HT-1080 cell line) was 202 nM. It also gave an IC50 ([3]; Homo sapiens, Hs746T, read-out: IC50 in cell proliferation assay, Hs 746.T cell line (MET exon14skip + amplification)) of 512 nM, an IC50 ([3]; Homo sapiens, Hs-578T, read-out: IC50 in cell proliferation assay, Hs 578T cell line) of 1190 nM and an IC50 ([3]; Homo sapiens, HuTu80, read-out: IC50 in cell proliferation assay, HuTu 80 cell line) of 509 nM. For the same molecule, the IC50 ([3]; Homo sapiens, J82, read-out: IC50 in cell proliferation assay, J82 cell line) was 372 nM, the IC50 ([3]; Homo sapiens, Jurkat E6.1, read-out: IC50 in cell proliferation assay, Jurkat E6.1 cell line) was 749 nM and the IC50 ([3]; Homo sapiens, K562, read-out: IC50 in cell proliferation assay, K-562 cell line) was 1540 nM. For the same molecule, the IC50 ([3]; Homo sapiens, KATO III, read-out: IC50 in cell proliferation assay, KATO III cell line (FGFR2 amplification)) was 718 nM, the IC50 ([3]; Homo sapiens, KG-1, read-out: IC50 in cell proliferation assay, KG-1 cell line (FGFR1OP2-FGFR1)) was 392 nM and the IC50 ([3]; Homo sapiens, KLE, read-out: IC50 in cell proliferation assay, KLE cell line) was 317 nM. For the same molecule, the IC50 ([3]; Homo sapiens, KMS-11, read-out: IC50 in cell proliferation assay, KMS-11 cell line (FGFR3 p.Y373C)) was 912 nM, the IC50 ([3]; Homo sapiens, KU812, read-out: IC50 in cell proliferation assay, Ku812 cell line) was 1510 nM and the IC50 ([3]; Homo sapiens, Kasumi 1, read-out: IC50 in cell proliferation assay, Kasumi-1 cell line (KIT p.N822K)) was 219 nM. It also gave an IC50 ([3]; Homo sapiens, LC-2-ad, read-out: IC50 in cell proliferation assay, LC-2/ad cell line (CCDC6-RET)) of 158 nM, an IC50 ([3]; Homo sapiens, LNCaP-Clone-FGC, read-out: IC50 in cell proliferation assay, LNCaP clone FGC cell line) of 6820 nM and an IC50 ([3]; Homo sapiens, LS174T, read-out: IC50 in cell proliferation assay, LS174T cell line) of 652 nM. For the same molecule, the IC50 ([3]; Homo sapiens, LS-411N, read-out: IC50 in cell proliferation assay, LS411N cell line (BRAF p.V600E)) was 1150 nM, the IC50 ([3]; Homo sapiens, LoVo, read-out: IC50 in cell proliferation assay, LoVo cell line) was 413 nM and the IC50 ([3]; Homo sapiens, MCF7, read-out: IC50 in cell proliferation assay, MCF-7 cell line) was 514 nM. It also gave an IC50 ([3]; Homo sapiens, MDA-MB-231, read-out: IC50 in cell proliferation assay, MDA-MB-231 cell line) of 1500 nM, an IC50 ([3]; Homo sapiens, MDA-MB-453, read-out: IC50 in cell proliferation assay, MDA-MB-453 cell line) of 8820 nM and an IC50 ([3]; Homo sapiens, MDA-MB-468, read-out: IC50 in cell proliferation assay, MDA-MB-468 cell line) of 4890 nM. It also gave an IC50 ([3]; Homo sapiens, MG-63, read-out: IC50 in cell proliferation assay, MG-63 cell line) of 377 nM, an IC50 ([3]; Homo sapiens, MIA PaCa-2, read-out: IC50 in cell proliferation assay, MIA PaCa-2 cell line) of 340 nM and an IC50 ([3]; Homo sapiens, MKN-45, read-out: IC50 in cell proliferation assay, MKN45 cell line (MET amplification)) of 1480 nM. For the same molecule, the IC50 ([3]; Homo sapiens, MOLM-13, read-out: IC50 in cell proliferation assay, MOLM-13 cell line (FLT3 ITD)) was 4 nM.
